Among the data in ChEMBL document CHEMBL1151999, “3-Lithioquinuclidin-2-ene: A novel intermediate for the synthesis of muscarinic agonists and antagonists” (Bioorg Med Chem Lett, 1994) are Ki and Kb values, retold here.

The target of test [1] is Muscarinic acetylcholine receptor M3 (Homo sapiens, UniProt P20309). Nature of the test: In vitro binding affinity towards muscarinic receptor in parotid gland (M3). The format is tissue-based.
Test [2] concerns the target T1, Muscarinic acetylcholine receptor M2 (Homo sapiens, UniProt P08172).
T1 sequence (P08172 whole entry): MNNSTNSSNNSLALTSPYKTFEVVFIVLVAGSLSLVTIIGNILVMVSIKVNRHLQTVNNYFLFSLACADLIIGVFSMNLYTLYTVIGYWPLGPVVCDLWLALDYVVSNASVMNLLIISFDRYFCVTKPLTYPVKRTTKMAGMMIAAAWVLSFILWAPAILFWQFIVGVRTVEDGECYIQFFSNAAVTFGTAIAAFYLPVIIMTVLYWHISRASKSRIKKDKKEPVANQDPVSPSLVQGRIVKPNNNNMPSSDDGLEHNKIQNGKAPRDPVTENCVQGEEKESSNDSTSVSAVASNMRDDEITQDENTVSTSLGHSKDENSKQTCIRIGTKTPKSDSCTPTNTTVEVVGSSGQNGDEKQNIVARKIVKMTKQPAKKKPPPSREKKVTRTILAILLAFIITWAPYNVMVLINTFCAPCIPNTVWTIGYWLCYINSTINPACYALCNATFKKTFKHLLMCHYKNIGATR
The test can be described thus: In vitro binding affinity towards muscarinic receptor in heart (M2) was determined.

Test [3] addresses Muscarinic acetylcholine receptor. The test can be described thus: In vitro binding affinity towards muscarinic receptor in urinary bladder was determined. The format is protein assay, Cavia porcellus.
Test [4] concerns the target T2, Muscarinic acetylcholine receptor M1 (Homo sapiens, UniProt P11229).
T2 sequence (P11229 whole entry): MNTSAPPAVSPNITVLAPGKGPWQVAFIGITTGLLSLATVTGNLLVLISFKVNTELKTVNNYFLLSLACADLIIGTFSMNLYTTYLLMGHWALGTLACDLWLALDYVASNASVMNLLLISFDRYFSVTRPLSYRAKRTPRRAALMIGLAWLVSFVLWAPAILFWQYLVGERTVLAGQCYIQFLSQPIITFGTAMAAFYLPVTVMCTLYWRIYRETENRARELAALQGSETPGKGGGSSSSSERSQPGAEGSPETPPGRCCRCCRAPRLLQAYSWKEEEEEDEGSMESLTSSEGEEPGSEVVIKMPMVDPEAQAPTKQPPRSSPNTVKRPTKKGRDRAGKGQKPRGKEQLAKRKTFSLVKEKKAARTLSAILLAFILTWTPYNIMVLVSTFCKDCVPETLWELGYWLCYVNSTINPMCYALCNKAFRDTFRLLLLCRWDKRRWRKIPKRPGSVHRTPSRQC
The test can be described thus: In vitro binding affinity towards muscarinic receptor in cerebral cortex (M1) was determined. The format is tissue-based.

The target in test [5] is Muscarinic acetylcholine receptor (Cavia porcellus). Nature of the test: Binding affinity towards muscarinic receptor in urinary bladder was determined.

Sequence of Muscarinic acetylcholine receptor M3 (P20309 whole entry): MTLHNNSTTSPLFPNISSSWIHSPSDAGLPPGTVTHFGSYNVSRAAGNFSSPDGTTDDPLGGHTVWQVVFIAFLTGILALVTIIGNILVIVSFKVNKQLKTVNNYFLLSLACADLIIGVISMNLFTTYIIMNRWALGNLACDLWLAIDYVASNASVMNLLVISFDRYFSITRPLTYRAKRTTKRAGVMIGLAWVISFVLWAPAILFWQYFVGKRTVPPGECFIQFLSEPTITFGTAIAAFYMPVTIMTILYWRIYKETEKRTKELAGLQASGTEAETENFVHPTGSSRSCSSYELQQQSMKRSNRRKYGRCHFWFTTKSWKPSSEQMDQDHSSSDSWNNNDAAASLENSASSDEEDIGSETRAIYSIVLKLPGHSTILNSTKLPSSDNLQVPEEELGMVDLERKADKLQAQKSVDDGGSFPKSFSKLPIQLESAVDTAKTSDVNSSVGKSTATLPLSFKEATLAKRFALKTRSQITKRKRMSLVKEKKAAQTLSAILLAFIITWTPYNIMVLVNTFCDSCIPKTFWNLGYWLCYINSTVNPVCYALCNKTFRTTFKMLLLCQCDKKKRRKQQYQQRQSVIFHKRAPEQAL

Consider `COc1ccccc1C(O)C1=CN2CCC1CC2` (configuration not stated), for which the inhibition constant (Ki) in test [1] is 1.5 µM; in test [2] it was 2200 nM; in test [3], 2.5 µM; in test [4] it was 330 nM. Moreover, in test [5], the Kb was found to be 450 nM.
`O=Cc1ccc(C2=CN3CCC2CC3)s1`: the Ki came to 4.8 µM in test [1], 2600 nM in test [2], 5.7 µM in test [3] and 990 nM in test [4].
As for `c1ccc2c(c1)C(=C1CN3CCC1CC3)c1ccccc1-2`, the Ki was found to be 0.1 µM in test [1], 98 nM in test [2], 0.249 µM in test [3] and 50 nM in test [4]. In test [5], the Kb came out at 370 nM.
In the case of `OC1(C2=CN3CCC2CC3)c2ccccc2CCc2ccccc21`, the Ki in test [1] was 6.9 µM; in test [2], 2400 nM; in test [3], 8 µM; in test [4] it was 2040 nM.
Consider `OC1(C2=CN3CCC2CC3)c2ccccc2C=Cc2ccccc21`, for which the Ki in test [1] was over 0.2 µM; in test [2], over 200 nM; in test [4], over 200 nM.
`OC1(C2=CN3CCC2CC3)c2ccccc2Oc2ccccc21`: the Ki in test [1] was 17 µM; in test [2], over 8000 nM; in test [4] it was over 8000 nM.
With `OC1(C2=CN3CCC2CC3)c2ccccc2-c2ccccc21`, the Ki in test [1] is over 5 µM; in test [2], over 5000 nM; in test [3], over 5 µM; in test [4], over 5000 nM.
For the molecule `CC(=O)c1ccc(C2=CN3CCC2CC3)s1`, the inhibition constant (Ki) in test [1] was 2.6 µM; in test [2], 1550 nM; in test [3], 2.6 µM; in test [4], 480 nM.
